The structures appear in SMILES notation.

For assay [1], the system named is mouse anti-RT3 scFv clone 64 (PCR pattern A). Nature of the assay: competitive inhibition ELISA, scFv binding to RT3-BSA. The following applies: 100 uM competitor, preincubated 1 hour at room temperature; ELISA signal normalized to no inhibitor (FIG. 8). The procedure:
(§1) The clones selected for analysis and their corresponding PCR pattern (see Table 1, Example 4.3) were: 50 (PCR B), 64 (PCR A), 68 (PCR D), 71 (PCR E), 80 (PCR C), 84 (PCR A), 95 (PCR I), 96 (PCR A), and 97 (PCR A). Soluble scFv was purified from 50 ml cultures of each clone using the IMAC protocol described in Example 4.1, except bound antibody was eluted with 50 mM EDTA, 0.5M NaCl. The scFv concentration for each clone was estimated from silver stained SDS polyacrylamide gels by running a portion of the eluted protein on a gel containing appropriate scFv concentration standards. The scFv protein was diluted to 4 ug/ml and then serially diluted 1:2 across 11 wells of RT3-BSA coated ELISA plate. The concentration of scFv giving 50% of the maximum ELISA signal was determined from the titration. This concentration of scFv was used for a subsequent competitive inhibition assay described below.
(§2) A competitive inhibition ELISA assay was performed by incubating scFV (at a concentration as determined by titration above) with 100 uM of each of the following compounds: RT3 hapten (Compound 7, FIG. 1), left hand portion of RT3 hapten (designated RT3A, Compound 8, FIG. 2), right hand portion of RT3 hapten (designated RT3B, Compound 12, FIG. 3), The left and right hand portions of the expected products from the esteriolytic cleavage of substrate (Compound 15, FIG. 4) designated Product A (Mesitylacetic acid, FIG. 4) and Product B (Compound 13, FIG. 4). The scFv was preincubated with the inhibitor compound in tubes at room temperature for 1 hour prior to addition to RT3-BSA coated ELISA wells. The […] readings have been normalized to a value of 1, which represents the ELISA signal seen for the corresponding scFv in the absence of added competitive inhibitor.
On the technique in general: In an ELISA, binding on a coated surface is turned into a signal by an enzyme label.

Assay [2] concerns mouse anti-RT3 scFv clone 96 (PCR pattern A). The description is as above. The following applies: 100 uM competitor, preincubated 1 hour at room temperature; ELISA signal normalized to no inhibitor (FIG. 8). The method, then: as §1, §2
Assay [3] has as its system mouse RT3 phage antibody scFv clone 68 (PCR pattern D). Described as above. The following applies: 100 uM competitor, preincubated 1 hour at room temperature; ELISA signal normalized to no inhibitor (FIG. 8); clone cross-reacts with BSA. The procedure:
as §1, §2

The subject of assay [4] is mouse RT3 phage antibody scFv clone 71 (PCR pattern E). Described as above. The conditions noted are these: 100 uM competitor, preincubated 1 hour at room temperature; ELISA signal normalized to no inhibitor (FIG. 8); clone cross-reacts with BSA. The method, then: as §1, §2
Assay [5] deals with mouse anti-RT3 scFv clone 50 (PCR pattern B). The description is as above. The following applies: 100 uM competitor, preincubated 1 hour at room temperature; ELISA signal normalized to no inhibitor (FIG. 8). The method, then:
as §1, §2

In assay [6] the test system is mouse anti-RT3 scFv clone 80 (PCR pattern C). The assay is described as above. The conditions noted are these: 100 uM competitor, preincubated 1 hour at room temperature; ELISA signal normalized to no inhibitor (FIG. 8). The procedure:
as §1, §2

For assay [7], the system named is mouse anti-RT3 scFv clone 84 (PCR pattern A). Described as above. The conditions noted are these: 100 uM competitor, preincubated 1 hour at room temperature; ELISA signal normalized to no inhibitor (FIG. 8). The procedure:
as §1, §2

The subject of assay [8] is mouse anti-RT3 scFv clone 95 (PCR pattern I). The description is as above. The following applies: 100 uM competitor, preincubated 1 hour at room temperature; ELISA signal normalized to no inhibitor (FIG. 8). The method, then:
as §1, §2

Assay [9] relates to mouse anti-RT3 scFv clone 97 (PCR pattern A). The description is as above. The conditions noted are these: 100 uM competitor, preincubated 1 hour at room temperature; ELISA signal normalized to no inhibitor (FIG. 8). The method, then:
as §1, §2

In assay [10] the test system is catalytic mouse anti-RT3 scFv clone 18. The assay can be described thus: catalytic assay (HPLC), hydrolysis of RT3 substrate by scFv. In kind it is biochemical. The procedure: (§3) To further examine the scFv fragments for catalytic activity, the potentially-catalytic proteins identified in the early screen described above were individually grown and purified. Purification of the scFv was acheived as described in Example 6.1 using either IMAC or affinity chromotagraphy on anti-Myc-Protein A agarose. Assays were performed in the same buffer systems and pH values as in the early screen but the antibodies were tested individually and they were not immobilized but free in solution.
(§4) From these secondary assays, two scFv molecules, designated 18 and 83, catalytic activity was found. Clone 18 appeared to be active at pH 9.0 but not at pH 7.0 while clone 83 appeared to be active at pH 7.0 but not at pH 9.0 or 5.0. […] These two clones were selected as candidates for large scale purifcation of scFv as described below. The results of these assays are presented in Example 6.4.
For clone 18 a typical catalytic assay was set up as follows: 50 μl of scFv was added to 145 μl of RT3 substrate (Compound 15, FIG. 4) and 5 μl of water or for some assays 5 μl of RT3 hapten. A blank consisting of 50 μl of water and […] of RT3 substrate was set up to monitor the background hydrolysis of the RT3 substrate. The reaction was allowed to proceed for 6 hours after which samples were frozen at -20° C. to stop the reaction. Samples were analyzed by HPLC as described in example 5.1. […]

The test system of assay [11] is catalytic mouse anti-RT3 scFv clone 83. The assay is described as above. Format: biochemical. The method, then: as §3, §4
Assay of IMAC or HIC purified scFv from clone 83 was done in a similar manner as described for clone 18 with the following exceptions. Substrate was buffered in 25 mM HEPES, pH 7.0, 140 mM NaCl and 0.01% NaN3. Due to the lower background hydrolysis of RT3 substrate at neutral pH, reactions were typically run for 24 hours. A blank was also analyzed and gives a profile similar to the that in FIG. 17B (data not shown).

For the molecule `Cc1cc(C)c(CC(=O)O)c(C)c1` [Product A, Mesitylacetic acid, reference compound], the “inhibition of scFv binding to RT3-BSA” value in assay [1] and in [2] was “to a lesser extent” each time.

Regarding `NC(=O)Cc1ccc(O)cc1` [Product B, 4-Hydroxyphenylacetamide], the “inhibition of scFv binding to RT3-BSA” value in assay [3], in [4], in assay [5], in assay [1], in assay [6] and in assay [7] was “No inhibition” throughout. Besides, the “inhibition of scFv binding to RT3-BSA” value in assay [8], in assay [2] and in assay [9] was “No inhibition” each time.

Turning to `Cc1cc(C)c(CP(=O)(O)Oc2ccc(CC(=O)O)cc2)c(C)c1` [RT3 hapten, 4-(carboxymethyl) phenyl-(2,4,6-trimethylphenyl)-methyl phosphonate], the “inhibition of scFv binding to RT3-BSA” value in [3] is reported as “did not show inhibition”; in assay [4], “did not show inhibition”; in assay [5], “inhibited”; in [1], “inhibited”; in [6] it was “inhibited”; in assay [7] it was “inhibited”. The “inhibition of scFv binding to RT3-BSA” value in assay [8], in [2] and in assay [9] was “inhibited” each time. Besides, the “catalysis in the presence of RT3 hapten” value in assay [10] (IMAC pure scFv, 50 uM RT3 substrate, pH 9.0, 6 hours, 5 μl RT3 hapten added (concentration not given), FIG. 15B) is “completely abrogated”; in assay [11] (IMAC pure scFv, RT3 substrate, pH 7.0, 24 hours, RT3 hapten added (concentration not given), FIG. 17B), “completely abrogated”. The “inhibition of catalytic activity” value in assay [10] (secondary screening, pH 9.0, 10 μM antibody, 40 μM substrate, 30 μM hapten) was “significantly inhibited”; in assay [11] (secondary screening, pH 7.0, 10 μM antibody, 40 μM substrate, 30 μM hapten), “significantly inhibited”.

For the molecule `COP(=O)(O)Cc1c(C)cc(C)cc1C` [RT3A], the “inhibition of scFv binding to RT3-BSA” value in assay [5], in assay [1], in assay [7], in assay [2] and in assay [9] was “binding inhibition” in each case.

Values taken from US5855885A, “Isolation and production of catalytic antibodies using phage technology” (priority 1994, dated 1999).
